“Also recorded” adds a separate entry of the source. Like-named read-outs stand apart in the source and are kept apart here.
Experiments:
Assay type in all cases: cell-based
[1] = target: T1, RXFP4 T121A (Homo sapiens, UniProt Q8TDU9, T121A); test: cAMP accumulation, RXFP4 T121A; settings: HEK293T
T1 construct: RXFP4(1-374)-; expressed in transfected cells; host or cells: HEK293T, transient (pCMV6)
Text: (§1) The full-length human RXFP4 (NCBI Reference Sequence: NM_181885.3) was cloned into a modified pFastBac vector (Invitrogen) with HA signal peptide to enhance receptor expression, followed by a 10× histidine tag and BRIL insertion at the N terminus. LgBiT subunit (Promega) was fused at the C terminus of RXFP4 connected by a 15-amino acid polypeptide linker. […] The engineered human Gαi2, Gβ1, bovine Gγ2, and scFv16 were cloned into the pFastBac vector (Invitrogen), respectively. For cAMP accumulation assay, human RXFP4 and RXFP3 (NCBI Reference Sequence: NM_016568.3) were cloned into pCMV6 constructs (OriGene Technologies). The mutant receptors were modified by site-directed mutagenesis in the setting of the WT constructs, with the primers designed by QuikChange Primer Design [QuickChange Primer Design (http://agilent.com.cn)] and carried out using Phanta Max Master (Vazyme). N-terminal Flag tag was added to both WT and mutant receptors for surface expression measurement. […]
(§2) CHO-K1 (ATCC, Cat#CCL-61) cells stably expressing human RXFP4 (hRXFP4-CHO) or RXFP3 (hRXFP3-CHO) were maintained in DMEM/F12 (Gibco) supplemented with 10% (v/v) fetal bovine serum (FBS) and 2 mM L-glutamine. […] Following 24 h culturing, the transfected cells were ready for detection.
(§3) Ligands were verified for their bioactivity in the beginning in hRXFP4-CHO, which were ready for use after 24 h culturing. […] The time-resolved fluorescence resonance energy transfer (TR-FRET) signals were detected by an EnVision multilabel plate reader (PerkinElmer) with the emission window ratio of 665 nm over 620 nm under 320 nm excitation. […]
(§4) Inhibition of forskolin-induced cAMP accumulation was performed in HEK293T cells transiently transfected with WT and mutant receptors. All the mutant constructs were modified by single-point mutation in the setting of the WT receptor. cAMP accumulation data were analyzed using a three-parameter logistic equation to determine pEC50 and Emax values. Emax values for mutants are defined as the window between the maximal response and vehicle control (no ligand) and expressed as a percentage of the WT. […]

[2] = target: T2, RXFP4 R194A (Homo sapiens, UniProt Q8TDU9, R194A); test: cAMP accumulation, RXFP4 R194A
T2 construct: RXFP4(1-374)-; expressed in transfected cells; host or cells: HEK293T, transient (pCMV6)
T2 sequence (Q8TDU9 whole entry R194A): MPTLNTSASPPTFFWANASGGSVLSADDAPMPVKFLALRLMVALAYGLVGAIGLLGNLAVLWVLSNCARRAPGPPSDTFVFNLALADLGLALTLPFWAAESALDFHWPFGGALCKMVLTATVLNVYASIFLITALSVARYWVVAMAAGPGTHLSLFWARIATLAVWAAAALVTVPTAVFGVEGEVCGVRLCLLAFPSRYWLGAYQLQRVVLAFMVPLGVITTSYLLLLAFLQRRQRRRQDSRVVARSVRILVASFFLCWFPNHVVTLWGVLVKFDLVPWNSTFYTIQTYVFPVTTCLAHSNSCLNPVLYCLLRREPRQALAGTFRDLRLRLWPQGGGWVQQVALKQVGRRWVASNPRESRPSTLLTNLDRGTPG
Text: The full-length human RXFP4 (NCBI Reference Sequence: NM_181885.3) was cloned into a modified pFastBac vector (Invitrogen) with HA signal peptide to enhance receptor expression, followed by a 10× histidine tag and BRIL insertion at the N terminus. LgBiT subunit (Promega) was fused at the C terminus of RXFP4 connected by a 15-amino acid polypeptide linker. […] The engineered human Gαi2, Gβ1, bovine Gγ2, and scFv16 were cloned into the pFastBac vector (Invitrogen), respectively. For cAMP accumulation assay, human RXFP4 and RXFP3 (NCBI Reference Sequence: NM_016568.3) were cloned into pCMV6 constructs (OriGene Technologies). The mutant receptors were modified by site-directed mutagenesis in the setting of the WT constructs, with the primers designed by QuikChange Primer Design [QuickChange Primer Design (http://agilent.com.cn)] and carried out using Phanta Max Master (Vazyme). N-terminal Flag tag was added to both WT and mutant receptors for surface expression measurement. Sequences of all primers used in this study were provided in Supplementary Table 6, and all the constructs were confirmed by DNA sequencing.
(§5) CHO-K1 (ATCC, Cat#CCL-61) cells stably expressing human RXFP4 (hRXFP4-CHO) or RXFP3 (hRXFP3-CHO) were maintained in DMEM/F12 (Gibco) supplemented with 10% (v/v) fetal bovine serum (FBS) and 2 mM L-glutamine. Human embryonic kidney 293 T cells containing SV40 large T-antigen (HEK293T, ATCC, Cat#64127316) were maintained in DMEM (Gibco) supplemented with 10% (v/v) FBS, 1 mM sodium pyruvate (Gibco), 100 units/mL penicillin and 100 μg/mL streptomycin at 37 °C in 5% CO2. For cAMP assays in mutants, HEK293T cells were seeded onto 6-well cell culture plates at a density of 7 × 10^5 cells per well. After overnight incubation, cells were transfected with WT or mutant receptors using Lipofectamine 3000 transfection reagent (Invitrogen). Following 24 h culturing, the transfected cells were ready for detection.
Ligands were verified for their bioactivity in the beginning in hRXFP4-CHO, which were ready for use after 24 h culturing. For assaying mutants, HEK293T cells were used 24 h post transfection. Cells were digested with 0.02% (w/v) EDTA and seeded onto 384-well microtiter plates at a density of 8 × 10^5 cells/mL in cAMP stimulation buffer [HBSS supplemented with 5 mM HEPES, 0.1% (w/v) bovine serum albumin (BSA) and 0.5 mM 3-isobutyl-1-methylxanthine]. The cells were stimulated with different concentrations of ligands plus 1.5 μM forskolin in RXFP4 and 4 μM forskolin in RXFP3. […] The time-resolved fluorescence resonance energy transfer (TR-FRET) signals were detected by an EnVision multilabel plate reader (PerkinElmer) with the emission window ratio of 665 nm over 620 nm under 320 nm excitation. […]
as §4, with “WT. Cell surface expression was assessed by flow cytometry to detect the N-terminal Flag epitope label on the receptors and normalized to the WT receptor (shown as percentage).” for “WT.”

[3] = target: RXFP4 Q205H (Homo sapiens, UniProt Q8TDU9, Q205H); test: cAMP accumulation, RXFP4 Q205H; settings: HEK293T
RXFP4 Q205H, sequence (Q8TDU9 whole entry Q205H): as the sequence (Q8TDU9 whole entry R194A) above, with A194R, Q205H counted along it
Text: as §1, §2, §3, §4

[4] = target: RXFP4 R208K (Homo sapiens, UniProt Q8TDU9, R208K); test: cAMP accumulation, RXFP4 R208K; settings: HEK293T
RXFP4 R208K, sequence (Q8TDU9 whole entry R208K): as the sequence (Q8TDU9 whole entry R194A) above, with A194R, R208K counted along it
Text: as §1, §2, §3, §4

[5] = target: T3, RXFP4 R208A (Homo sapiens, UniProt Q8TDU9, R208A); test: cAMP accumulation, RXFP4 R208A; settings: HEK293T
T3 construct: RXFP4(1-374)-; expressed in transfected cells; host or cells: HEK293T, transient (pCMV6)
T3 sequence (Q8TDU9 whole entry R208A): as the sequence (Q8TDU9 whole entry R194A) above, with A194R, R208A counted along it
Text: as §1, §2, §3, §4

[6] = test system: human RXFP3; test: inhibition of forskolin-induced cAMP accumulation, WT RXFP3 (hRXFP3-CHO); settings: binding and cAMP assays, Fig. 3e, Supplementary Fig. 2e–g
Protocol: as §5, §3
All functional study data were analyzed using GraphPad Prism 8.3 (GraphPad Software) and presented as means ± S.E.M. from at least three independent experiments. Dose-response curves were evaluated with a three-parameter logistic equation. […]

[7] = target: T4, RXFP4 L118S (Homo sapiens, UniProt Q8TDU9, L118S); test: cAMP accumulation, RXFP4 L118S; settings: HEK293T
T4 construct: RXFP4(1-374)-; expressed in transfected cells; host or cells: HEK293T, transient (pCMV6)
T4 sequence (Q8TDU9 whole entry L118S): as the sequence (Q8TDU9 whole entry R194A) above, with L118S, A194R counted along it
Text: (§6) The full-length human RXFP4 (NCBI Reference Sequence: NM_181885.3) was cloned into a modified pFastBac vector (Invitrogen) with HA signal peptide to enhance receptor expression, followed by a 10× histidine tag and BRIL insertion at the N terminus. LgBiT subunit (Promega) was fused at the C terminus of RXFP4 connected by a 15-amino acid polypeptide linker. […] The engineered human Gαi2, Gβ1, bovine Gγ2, and scFv16 were cloned into the pFastBac vector (Invitrogen), respectively. For cAMP accumulation assay, human RXFP4 and RXFP3 (NCBI Reference Sequence: NM_016568.3) were cloned into pCMV6 constructs (OriGene Technologies). […]
as §2, §3

[8] = target: T5, RXFP4 Y284A (Homo sapiens, UniProt Q8TDU9, Y284A); test: cAMP accumulation, RXFP4 Y284A
T5 construct: RXFP4(1-374)-; expressed in transfected cells; host or cells: HEK293T, transient (pCMV6)
T5 sequence (Q8TDU9 whole entry Y284A): as the sequence (Q8TDU9 whole entry R194A) above, with A194R, Y284A counted along it
Text: as §6, §2, §3

[9] = target: T6, RXFP4 Q205A (Homo sapiens, UniProt Q8TDU9, Q205A); test: cAMP accumulation, RXFP4 Q205A
T6 construct: RXFP4(1-374)-; expressed in transfected cells; host or cells: HEK293T, transient (pCMV6)
T6 sequence (Q8TDU9 whole entry Q205A): as the sequence (Q8TDU9 whole entry R194A) above, with A194R, Q205A counted along it
Text: as §6, §2, §3

[10] = target: T7, RXFP4 V122A (Homo sapiens, UniProt Q8TDU9, V122A); test: cAMP accumulation, RXFP4 V122A; settings: HEK293T, mean ± S.E.M.
T7 construct: RXFP4(1-374)-; expressed in transfected cells; host or cells: HEK293T, transient (pCMV6)
T7 sequence (Q8TDU9 whole entry V122A): as the sequence (Q8TDU9 whole entry R194A) above, with V122A, A194R counted along it
Text: as §6, §2, §3

[11] = target: T8, RXFP4 W279A (Homo sapiens, UniProt Q8TDU9, W279A); test: cAMP accumulation, RXFP4 W279A
T8 construct: RXFP4(1-374)-; expressed in transfected cells; host or cells: HEK293T, transient (pCMV6)
T8 sequence (Q8TDU9 whole entry W279A): as the sequence (Q8TDU9 whole entry R194A) above, with A194R, W279A counted along it
Text: as §6, §2, §3

[12] = 1.5 μM forskolin, mean ± S.E.M., n = 3

T1 sequence (Q8TDU9 whole entry T121A): as the sequence (Q8TDU9 whole entry R194A) above, with T121A, A194R counted along it

Structure (SMILES): CCOc1cc2c(cc1OC)CCN(C(=O)N1CCOCC1)[C@H]2CCc1c[nH]c2ccc(OC)cc12 [DC591053, (S)-(7-ethoxy-6-methoxy-1-(2-(5-methoxy-1H-indol-3-yl)ethyl)−3,4-dihydroisoquinolin-2(1H)-yl)(morpholino)methanone]
- decrease of potency vs WT [1]: 20.9 fold
- EC50 ([1]; 1.5 μM forskolin, mean ± S.E.M., n = 3 or 4, N.A., not active): 724 nM
- Emax ([1]; mean ± S.E.M.): 31.53 ± 7.09 % WT
- decrease of potency vs WT ([2]; HEK293T): 8.1 fold
- EC50 ([2]; HEK293T, 1.5 μM forskolin, mean ± S.E.M., n = 3, read-out: pEC50 (converted)): 282 nM
- Emax ([2]; HEK293T, mean ± S.E.M.): 81.10 ± 7.60 % WT
- response [3]: more profound reduction for DC591053 than compound 4
- EC50 [3, 12]: 676 nM
- Emax ([3]; mean ± S.E.M.): 25.10 ± 6.36 % WT
- response [4]: more profound reduction for DC591053 than compound 4
- EC50 [4, 12]: 204 nM
- Emax ([4]; mean ± S.E.M.): 60.43 ± 6.52 % WT
- decrease of potency vs WT [5]: 7.6 fold
- EC50 ([5]; 1.5 μM forskolin, mean ± S.E.M., n = 3, N.A., not active): 263 nM
- Emax ([5]; mean ± S.E.M.): 52.09 ± 4.26 % WT
- cross-reactivity with RXFP3 [6]: neither reacted with related RXFP3; also recorded: without observable cross-reactivity

Structure (SMILES): CC[C@H](C)[C@@H]1NC(=O)[C@H](Cc2ccc(O)cc2)NC(=O)[C@H]([C@@H](C)CC)NC(=O)[C@H](C(C)C)NC(=O)[C@H]([C@@H](C)O)NC(=O)[C@H](CCCNC(=N)N)NC(=O)[C@H]([C@@H](C)CC)NC(=O)[C@H](Cc2ccc(O)cc2)NC(=O)[C@H](CCC(=O)O)NC(=O)[C@H](CC(C)C)NC(=O)CNC(=O)[C@@H](NC(=O)[C@H](CC(C)C)NC(=O)[C@H](CCCNC(=N)N)NC(=O)[C@@H](NC(=O)[C@H](CO)NC(=O)[C@H](CCC(=O)O)NC(=O)[C@@H](N)CCCCN)C(C)C)CSSC[C@@H]2NC(=O)[C@@H](NC(=O)[C@H](CC(C)C)NC(=O)[C@@H](NC(=O)[C@H](CCC(N)=O)NC(=O)[C@H](CC(C)C)NC(=O)[C@H](CC(=O)O)NC(=O)[C@@H](N)CCC(N)=O)[C@@H](C)O)CSSC[C@H](NC(=O)CNC(=O)[C@H](CC(=O)O)NC(=O)[C@H]([C@@H](C)O)NC2=O)C(=O)N[C@@H](CO)C(=O)N[C@@H](CCSC)C(=O)N[C@@H]([C@@H](C)O)C(=O)N[C@@H](CC(=O)O)C(=O)N[C@@H](CC(C)C)C(=O)N[C@@H](CO)C(=O)N[C@@H](C)C(=O)N[C@@H](CC(C)C)C(=O)N[C@H](C(=O)O)CSSC[C@@H](C(=O)N[C@@H](C)C(=O)N[C@@H](CO)C(=O)N[C@@H](CO)C(=O)N[C@@H](CCCNC(=N)N)C(=O)N[C@@H](Cc2c[nH]c3ccccc23)C(=O)O)NC1=O [INSL5, insulin-like peptide 5]
- response [7]: inactive
- EC50 [2]: 1.66 nM
- Emax ([2]; HEK293T, mean ± S.E.M.): 79.76 ± 6.06 % WT
- EC50 [8]: 1.82 nM
- Emax ([8]; HEK293T, mean ± S.E.M.): 49.25 ± 4.06 % WT
- EC50 [9]: 3.98 nM
- Emax ([9]; HEK293T, mean ± S.E.M.): 50.94 ± 6.54 % WT
- EC50 ([10]; 1.5 μM forskolin, n = 3): 3.63 nM
- Emax [10]: 33.20 ± 3.27 % WT
- EC50 [11]: 1.86 nM
- Emax ([11]; HEK293T, mean ± S.E.M.): 43.30 ± 3.29 % WT

Reference: article PMC9886975, “Ligand recognition mechanism of the human relaxin family peptide receptor 4 (RXFP4)” (Nature Communications, 2023)
